Measurements reported in US20180179198A1, “TRICYCLIC MODULATORS OF TNF SIGNALING” (AbbVie Inc., priority 2015, published 2018).

What follows are compounds tested against TNFα trimer (Homo sapiens, UniProt P01375) (assay: TNFα FP Competitive Binding Assay). Conditions: TNFα FP competitive binding assay; class symbols A/B/C; read-out: TNF IC50.
Description: TNFα FP Competitive Binding Assay
• 1. Assay Buffer: Prepare 1× Assay Buffer (Water with 47 mM HEPES, 47 mM NaCl, 0.9 mM EDTA, 0.0071% Triton X-100) by adding 25 mL of 1 M HEPES, 5 mL of 5 M NaCl, 1 mL of 0.5 M EDTA, and 375 μL of a 10% Triton X-100 stock to a fresh 500 mL bottle of water. • 2. Assay Mixture: Prepare fresh Assay Mixture containing 20 nM TNFα trimer (60 nM protein) and 1 nM 2′,7′-difluoro-3′,6′-dihydroxy-N-(2-(2-(2-((4-(isoquinolin-8-yl)-3-(4-(isoquinolin-8-yl)phenethoxy)benzyl)oxy)ethoxy)ethoxy)ethyl)-3-oxo-3H-spiro[isobenzofuran-1,9′-xanthene]-5-carboxamide probe in 1× Assay Buffer.
Compound Plate Preparation
Manual 12-point 1:3 Dilution Plates: (384 well polypropylene plates)
Top concentration of compounds, 10 mM in DMSO, dispensed in rows A-O in columns 1 and 13. Compounds are serially diluted 1:3 with DMSO in columns 2-12 or 14-24 using a 16-channel Matrix pipettor. Plates stored at −20° C.
Discovery Preps 12-point 1:3 Dilution Plates: (384 well assay plates)
Top concentration, 5 mM in DMSO, of compounds placed in rows A-O in columns 1 and 13. Compounds are serially diluted 1:3 with DMSO in columns 2-12 or 14-24. Compound solutions are dispensed into replicate assay plates at 410 nL per well. Plates stored at 4° C.
TNFα FP Competitive Binding Assay Protocol
• 1. Compound plates are warmed to rt. • 2. Fresh Assay Mixture is prepared. • 3. Assay Mixture (20 μL) is dispensed each well of 384 assay plates using a Thermo Multidrop Combi or 16-channel Matrix pipettor. If Manual 12-point 1:3 Dilution Plates are to be tested, Assay Mix is dispensed into empty plates. Discovery Preps 12-point 1:3 Dilution Plates already contain 410 nL compound solution in DMSO. • 4. For Manual 12-point 1:3 Dilution Plates, 0.7 μL is manually transferred using a 16-channel Matrix pipettor to replicate assay plates containing 20 μL Assay Mixture for a final top compound concentration of 338 μM (3.4% DMSO). • 5. For Discovery Preps 12-point 1:3 Dilution Plates, 20 μL Assay Mixture added the 410 nL compound solution already in the plates yields a final top compound concentration of 100 μM (2.0% DMSO). • 6. Background subtraction controls are wells P1-P8 containing only Assay Buffer. The low % inhibition controls are wells P9-P16 containing only Assay Mix. The high % inhibition are wells P17-P24 containing only 1 nM 2′,7′-difluoro-3′,6′-dihydroxy-N-(2-(2-(2-((4-(isoquinolin-8-yl)-3-(4-(isoquinolin-8-yl)phenethoxy)benzyl)oxy)ethoxy)ethoxy)ethyl)-3-oxo-3H-spiro[isobenzofuran-1,9′-xanthene]-5-carboxamide probe in 1× Assay Buffer. • 7. Plates are incubated at […] for 18-24 h in 37° C. incubator (CO2 is off). • 8. Prior to reading the assay, the plates are placed in a dark cabinet to equilibrate at rt for one hour. • 9. Background-subtracted fluorescence polarization (mP) is measured using a PerkinElmer Envision plate reader. • 10. Raw data is entered into Assay Explorer and dose-response curves are generated using a variable slope curve.

Sequence of TNFα trimer (P01375 77-233 limits assumed): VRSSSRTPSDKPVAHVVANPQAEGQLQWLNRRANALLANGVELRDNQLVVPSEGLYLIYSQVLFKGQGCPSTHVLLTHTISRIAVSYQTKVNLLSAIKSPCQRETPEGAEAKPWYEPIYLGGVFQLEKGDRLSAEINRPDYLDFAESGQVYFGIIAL

`N#C[C@@H]1CC[C@@H](Oc2cc(-c3ccc4nc5n(c4n3)[C@@H](c3ccccc3)CC5)ccn2)C1` [AS.7] and `c1ccc([C@H]2CCc3nc4ccc(-c5ccnc(O[C@@H]6CCNC6)c5)nc4n32)cc1` [AT.2] fall in the same range of IC50: 1 to 10 µM for the first, 1 to 10 µM for the second.

`c1ccc([C@H]2CCc3nc4ccc(-c5ccnc(OC6CCCNC6)c5)nc4n32)cc1` (stereo partly drawn) [AT.1] and `c1ccc([C@H]2CCc3nc4ccc(-c5ccnc(OC6CCC67CCNC7)c5)nc4n32)cc1` (stereo partly drawn) [AT.3] fall in the same range of IC50: 1 to 10 µM for the first, 1 to 10 µM for the second.

`O=C1NC[C@@H]2CN(c3ncc(-c4ccc5nc6n(c5n4)C4(COC6)COc5ccccc54)cn3)CCN12` (stereo partly drawn) [AU.1] and `O=C1NC[C@@H]2CN(c3ncc(-c4ccc5nc6n(c5n4)C4(CCOc5ccccc54)COC6)cn3)CCN12` (stereo partly drawn) [BB.1] cannot be ordered by IC50: under 1 µM for the first, under 1 µM for the second.

`OC1CC(Nc2ncc(-c3ccc4nc5n(c4n3)C3(COC5)COc4ccccc43)cn2)C1` (stereo not drawn) [AU.2] and `OC1CC(Nc2ncc(-c3ccc4nc5n(c4n3)C3(CCOc4ccccc43)COC5)cn2)C1` (stereo not drawn) [BB.6] fall in the same range of IC50: 1 to 10 µM for the first, 1 to 10 µM for the second.

First: c1ccc2c(c1)OCC21COCc2nc3ccc(-c4cnc(NC5CCOC5)nc4)nc3n21 (stereo not drawn) [AU.3]
Second: OC1CCCN(c2ncc(-c3ccc4nc5n(c4n3)C3(COC5)COc4ccccc43)cn2)C1 (stereo not drawn) [AU.4]
The IC50 of the first is higher: 1 to 10 µM for the first, under 1 µM for the second.

`CN1CCN(c2ncc(-c3ccc4nc5n(c4n3)C3(COC5)COc4ccccc43)cn2)CC1` (stereo not drawn) [AU.5] and `CN1CCN(c2ncc(-c3ccc4nc5n(c4n3)C3(CCOc4ccccc43)COC5)cn2)CC1` (stereo not drawn) [BB.8] fall in the same range of IC50: 1 to 10 µM for the first, 1 to 10 µM for the second.

`OCC1CCCN(c2ncc(-c3ccc4nc5n(c4n3)C3(CCc4ccccc43)COC5)cn2)C1` (stereo not drawn) [AV.1] and `OC1CCCN(c2ncc(-c3ccc4nc5n(c4n3)C3(CCc4ccccc43)COC5)cn2)CC1` (stereo not drawn) [AV.9] cannot be ordered by IC50: under 1 µM for the first, under 1 µM for the second.

`O=C1NC[C@@H]2CN(c3ncc(-c4ccc5nc6n(c5n4)C4(CCc5ccccc54)COC6)cn3)CCN12` (stereo partly drawn) [AV.2] and `c1ccc2c(c1)CCC21COCc2nc3ccc(-c4cnc(N5CCOCC5)nc4)nc3n21` (stereo not drawn) [AV.8] cannot be ordered by IC50: under 1 µM for the first, under 1 µM for the second.

`c1ccc2c(c1)CCC21COCc2nc3ccc(-c4cnc(N5CCCOCC5)nc4)nc3n21` (stereo not drawn) [AV.3] and `c1ccc2c(c1)OCCC21COCc2nc3ccc(-c4cnc(N5CCOCC5)nc4)nc3n21` (stereo not drawn) [BA.6] cannot be ordered by IC50: under 1 µM for the first, under 1 µM for the second.

`OC1CCN(c2ncc(-c3ccc4nc5n(c4n3)C3(CCc4ccccc43)COC5)cn2)CC1(F)F` (stereo not drawn) [AV.4] and `OCC1(F)CCN(c2ncc(-c3ccc4nc5n(c4n3)C3(CCc4ccccc43)COC5)cn2)CC1` (stereo not drawn) [AV.7] cannot be ordered by IC50: under 1 µM for the first, under 1 µM for the second.

`CC(O)C(=O)N1CCN(c2ncc(-c3ccc4nc5n(c4n3)C3(CCc4ccccc43)COC5)cn2)CC1` (stereo not drawn) [AV.5] and `O=C(CO)N1CCN(c2ncc(-c3ccc4nc5n(c4n3)C3(CCc4ccccc43)COC5)cn2)CC1` (stereo not drawn) [AV.6] cannot be ordered by IC50: under 1 µM for the first, under 1 µM for the second.

`O=c1cc(-c2ccc3nc4n(c3n2)[C@@H](c2ccccc2)CC4)ccn1CC1CCC(F)(F)CC1` [AW.1] and `O=c1cc(-c2ccc3nc4n(c3n2)[C@@H](c2ccccc2)CC4)ccn1CC1CCOCC1` [AW.3] fall in the same range of IC50: 1 to 10 µM for the first, 1 to 10 µM for the second.

`COCCn1ccc(-c2ccc3nc4n(c3n2)[C@@H](c2ccccc2)CC4)cc1=O` [AW.2] and `COCCOc1cc(-c2ccc3nc4n(c3n2)[C@@H](c2ccccc2)CC4)ccn1` [BC.1] fall in the same range of IC50: 1 to 10 µM for the first, 1 to 10 µM for the second.

First: O=c1cc(-c2ccc3nc4n(c3n2)[C@@H](c2ccccc2)CC4)ccn1C1CCOCC1 [AW.5]
Second: c1ccc([C@H]2CCc3nc4ccc(-c5cnn(C6CCOCC6)c5)nc4n32)cc1 [AW.6]
The IC50 of the first is higher: 10 to 100 µM for the first, 1 to 10 µM for the second.

Compared with `O[C@H]1CC[C@H](Oc2cc(-c3ccc4nc5n(c4n3)C3(COC5)COc4ccccc43)ccn2)CC1` (stereo partly drawn) [AX.1], `O[C@H]1CC[C@@H](Oc2cc(-c3ccc4nc5n(c4n3)C3(COC5)COc4ccccc43)ccn2)CC1` (stereo partly drawn) [AX.2] is higher in IC50: under 1 µM for the first, 1 to 10 µM for the second.

Compared with `OC1CCC(Oc2cc(-c3ccc4nc5n(c4n3)C3(COC5)COc4ccccc43)ccn2)C1` (stereo not drawn) [AX.3], `c1ccc2c(c1)OCC21COCc2nc3ccc(-c4ccnc(OC5CCOCC5)c4)nc3n21` (stereo not drawn) [BG.1] is higher in IC50: under 1 µM for the first, 1 to 10 µM for the second.

First: c1nc(N2CCOCC2)ncc1-c1ccc2nc3c(n2n1)C1(CCCCC1)OCC3 [AY.1]
Second: c1ccc2c(c1)OCCC21OCCc2nc3ccc(-c4cnc(N5CCOCC5)nc4)nn3c21 (stereo not drawn) [AY.2]
The IC50 of the first is higher: 1 to 10 µM for the first, under 1 µM for the second.

`OC1CCN(c2ncc(-c3ccc4nc5n(c4n3)C(c3ccccc3)COC5)cn2)CC1(F)F` (stereo not drawn) [AZ.1] and `OC1CCN(c2ncc(-c3ccc4nc5n(c4n3)C(c3ccccc3)COC5)cn2)CC1` (stereo not drawn) [AZ.2] cannot be ordered by IC50: under 1 µM for the first, under 1 µM for the second.

First: c1ccc(C2COCc3nc4ccc(-c5cnc(N6CCCOCC6)nc5)nc4n32)cc1 (stereo not drawn) [AZ.3]
Second: OCC1CCCN(c2ncc(-c3ccc4nc5n(c4n3)C(c3ccccc3)COC5)cn2)C1 (stereo not drawn) [AZ.4]
The IC50 of the first is higher: 1 to 10 µM for the first, under 1 µM for the second. The second is the more potent here.

`OCC1(F)CCN(c2ncc(-c3ccc4nc5n(c4n3)C(c3ccccc3)COC5)cn2)CC1` (stereo not drawn) [AZ.5] and `O=C(CO)N1CCN(c2ncc(-c3ccc4nc5n(c4n3)C(c3ccccc3)COC5)cn2)CC1` (stereo not drawn) [AZ.7] cannot be ordered by IC50: under 1 µM for the first, under 1 µM for the second.

`CC(O)C(=O)N1CCN(c2ncc(-c3ccc4nc5n(c4n3)C(c3ccccc3)COC5)cn2)CC1` (stereo not drawn) [AZ.6] and `c1ccc(C2C3CC(C3)c3nc4ccc(-c5cnc(N6CCOCC6)nc5)nc4n32)cc1` (stereo not drawn) [BE.1] fall in the same range of IC50: 1 to 10 µM for the first, 1 to 10 µM for the second.

Compared with `COc1ncc(-c2ccc3nc4n(c3n2)C2(CCOc3ccccc32)COC4)cn1` (stereo not drawn) [BA.1], `CCOc1ncc(-c2ccc3nc4n(c3n2)C2(CCOc3ccccc32)COC4)cn1` (stereo not drawn) [BA.2] is lower in IC50: 1 to 10 µM for the first, under 1 µM for the second. The second is the more potent here.

`CS(=O)(=O)c1ncc(-c2ccc3nc4n(c3n2)C2(CCOc3ccccc32)COC4)cn1` (stereo not drawn) [BA.3] and `CC(C)(O)c1ncc(-c2ccc3nc4n(c3n2)C2(CCOc3ccccc32)COC4)cn1` (stereo not drawn) [BA.7] fall in the same range of IC50: 1 to 10 µM for the first, 1 to 10 µM for the second.

First: c1ccc2c(c1)OCCC21COCc2nc3ccc(-c4cnc(N5CCCNCC5)nc4)nc3n21 (stereo not drawn) [BA.4]
Second: OC1CCN(c2ncc(-c3ccc4nc5n(c4n3)C3(CCOc4ccccc43)COC5)cn2)CC1 (stereo not drawn) [BB.2]
The IC50 of the first is higher: 1 to 10 µM for the first, under 1 µM for the second. The second is the more potent here.

`CC(C)Nc1ncc(-c2ccc3nc4n(c3n2)C2(CCOc3ccccc32)COC4)cn1` (stereo not drawn) [BA.5] and `CC1(O)CN(c2ncc(-c3ccc4nc5n(c4n3)C3(CCOc4ccccc43)COC5)cn2)C1` (stereo not drawn) [BB.7] fall in the same range of IC50: 1 to 10 µM for the first, 1 to 10 µM for the second.

`c1ccc2c(c1)OCCC21COCc2nc3ccc(-c4ccnc(OC5CCOCC5)c4)nc3n21` (stereo not drawn) [BA.8] and `OC1CCN(c2ncc(-c3ccc4nc5n(c4n3)C3(CCOc4ccccc43)COC5)cn2)C1` (stereo not drawn) [BB.5] cannot be ordered by IC50: under 1 µM for the first, under 1 µM for the second.

`OC1CCCN(c2ncc(-c3ccc4nc5n(c4n3)C3(CCOc4ccccc43)COC5)cn2)C1` (stereo not drawn) [BB.3] and `OC1CN(c2ncc(-c3ccc4nc5n(c4n3)C3(CCOc4ccccc43)COC5)cn2)C1` (stereo not drawn) [BB.4] cannot be ordered by IC50: under 1 µM for the first, under 1 µM for the second.

`CC(C)(O)COc1cc(-c2ccc3nc4n(c3n2)[C@@H](c2ccccc2)CC4)ccn1` [BC.2] and `c1ccc(C2C3CC(C3)c3nc4ccc(-c5ccnc(OC6CCOCC6)c5)nc4n32)cc1` (stereo not drawn) [BD.1] fall in the same range of IC50: 1 to 10 µM for the first, 1 to 10 µM for the second.

`C1=C(c2ccc3nc4n(c3n2)C2(COC4)COc3ccccc32)CNC1` (stereo not drawn) [BF.1] and `CNCC(=O)N1CC=C(c2ccc3nc4n(c3n2)C2(COC4)COc3ccccc32)CC1` (stereo not drawn) [BF.2] fall in the same range of IC50: 1 to 10 µM for the first, 1 to 10 µM for the second.

Same assay, conditions: fluorescence polarization competition; 20 nM TNFα trimer, 1 nM OregonGreen488 probe; read-out: TNF IC50 (TNFα FP binding assay IC50)

`CC(C)(O)c1ncc(-c2ccc3nc4n(c3c2)C(c2cccc(F)c2)CC4)cn1` (stereo not drawn) [B.1] and `Cc1ccc(C)c(C2CCc3nc4ccc(-c5cnc(C(C)(C)O)nc5)cc4n32)c1` (stereo not drawn) [B.2, 2-(5-(1-(2,5-Dimethylphenyl)-2,3-dihydro-1H-benzo[d]pyrrolo[1,2-a]imidazol-7-yl)pyrimidin-2-yl)propan-2-ol] cannot be ordered by IC50: under 1 µM for the first, under 1 µM for the second.
